Numbers after ± are expanded uncertainties.
Columns and labels:
[1] = 298.2 K; 101.33 kPa; Liquid; Vibrating tube method
[2] = refractive index (Na D-line) (dimensionless); details: 298.2 K; 101.33 kPa; Liquid; Standard Abbe refractometry

CC(C)OC(C)C [diisopropyl ether]
mass density [1]: 718.79 ± 0.3 kg/m3 | refractive index [2]: 1.3653 ± 0.0007

CCCO [propan-1-ol]
mass density [1]: 799.62 ± 0.24 kg/m3 | refractive index [2]: 1.3835 ± 0.0007

Reference: the NIST ThermoML archive (doi:10.1016/j.fluid.2008.11.014)
